Reference: US20140079636A1, “TARGETED THERAPEUTICS” (priority 2012, published 2014)
pIC50: −log10 of the molar value.

Key:
HER2 = test: Her2 degradation assay with BT-474 cell line (Example 12, FACS); assay type: cell-based, human; conditions: BT-474 cells
Source text: HER2 has emerged as a key target for anticancer drugs due to its intrinsic involvement in the phosphatidylinositol-3-kinase-Akt/proteinkinase B (PI3K-Akt) and the mitogen-activated protein kinase (MAPK) pathways, both of which suppress apoptosis and promote tumor cell survival, gene transcription, angiogenesis, cellular proliferation, migration, mitosis, and differentiation. The degradation of HER2 is a measure of efficacy of anticancer therapeutics that target Hsp90. Accordingly, the SDC-TRAP molecules of the invention that comprise a binding moiety that binds Hsp90 were tested in the following HER2 degradation assay.
BT-474 cells (human breast cancer cell line ATCC HTB-20) were obtained from ATCC and seeded into 12-well tissue culture plates at 0.2×10^6/1.8 mL/well. […] Each test compound was titrated in 4-fold dilutions from 5 μM to 78 nM with DMSO and 200 μL of the titration was added to each well of the cell plate. The DMSO final concentration was 0.2%. Cells were incubated overnight at 37° C. in 5% CO2.
Media was decanted from the plate, cells were washed 1× in PBS. 400 μL trypsin (EDTA) per well was added and the cells were incubated for 2 to 3 minutes. […] The cytometer readout was normalized and the potency of each compound is evaluated with IC50 calculated with XL Fit software.

[1] = Tissue distribution of SDC-TRAPs in plasma and tumor (Example 14 extraction procedure); conditions: in vivo; Tissue Distribution Data for SDC-TRAP-0076; Time 6 h; read-out: Tumor/Plasma Ratio
Procedure: In order to test the ability SDC-TRAP molecules of the invention to be specifically targeted to tumor cells, the following experiment was performed.
Using the 10 mM stock solutions of the HDC compound and its Hsp90i and drug conjugate in DMSO, spiking solutions were prepared at 0.025, 0.05, 0.1, 0.5, 1, 5, 10, 50, 100, 250, and 500 μM in DMSO. 5 μL of each spiking solution was added to a 96-deep well plate. 50 μL of matrix (plasma thawed over ice or homogenized blank tumor).
Quality control standards were prepared from 5 μL of 0.1, 1, and 10 μM calibration standard spiking solution added in triplicate into 96-deep well plate and adding 50 μL of matrix (plasma or homogenized tumor).
To prepare test samples, test plasma was diluted as needed using blank plasma. Tumor samples were pulverized in liquid nitrogen, weighed, and homogenized in PBS at 5× volume to sample weight. 50 μL of unknown plasma or homogenized tumor sample was mixed with 5 μL of DMSO. The samples were extracted by precipitating calibration standards, QC standards, and unknown samples with 200 μL of internal standard solution. The samples were mixed by vortex at room temperature for approximately 1.5 minutes, then centrifuge at 2-8° C. 150 μL of supernatant was collected and 25 μL of water added. Samples were mixed and analyzed by LC-MS/MS.

Structure (SMILES): CC(C)c1cc(-c2nnc(O)n2-c2ccc(CN3CCN(C(=O)CCn4cc(F)c(=O)[nH]c4=O)CC3)cc2)c(O)cc1O [SDC-TRAP-0049]
- pIC50 (HER2): < 5.30

Structure (SMILES): CCNC(=O)c1nnc(-c2cc(C(C)C)c(O)cc2O)n1-c1ccc(CN2CCC(C(=O)N3CCC(C(=O)OC4(CC)C(=O)OCc5c4cc4n(c5=O)Cc5c-4nc4ccc(O)cc4c5CC)CC3)CC2)cc1 (centres unmarked) [SDC-TRAP-0076, 4,11-diethyl-9-hydroxy-3,14-dioxo-3,4,12,14-tetrahydro-1H-pyrano[3′,4′:6,7]indolizino[1,2-b]quinolin-4-yl 1-(1-(4-(3-(2,4-dihydroxy-5-isopropylphenyl)-5-(ethylcarbamoyl)-4H-1,2,4-triazol-4-yl)benzyl)piperidine-4-carbonyl)piperidine-4-carboxylate]
- Kp [1]: 7.25
